The structures appear in SMILES notation. Active and inactive are the calls of the source. The calls are words filed in the database; no cut-off is given here.

Assay [1] addresses T1, Ribonuclease pancreatic (Bos taurus) (UniProt P61823).
T1 sequence (whole entry): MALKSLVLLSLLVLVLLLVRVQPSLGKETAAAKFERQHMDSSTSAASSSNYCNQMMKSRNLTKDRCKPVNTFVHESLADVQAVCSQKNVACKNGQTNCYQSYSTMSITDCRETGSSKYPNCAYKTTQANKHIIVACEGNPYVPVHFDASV
Description: Inhibition of bovine pancreatic RNase A-mediated degradation of yeast tRNA assessed as residual tRNA band at 0.18 mM preincubated for 3 hrs measured after 30 mins of addition of tRNA using ethidium bromide staining by agarose gel based assay.

In assay [2] the target is T2, Ribonuclease pancreatic (Bos taurus, UniProt P61823).
T2 sequence (P61823 whole entry): T1 sequence (whole entry)
Description: Inhibition of bovine pancreatic RNase A using 2',3'-cCMP as a substrate by Dixon plot analysis.

The target in assay [3] is T1, Ribonuclease pancreatic (Bos taurus). The assay can be described thus: Inhibition of bovine pancreatic RNase A ribonucleolytic activity assessed as reduction of yeast tRNA degradation at 0.27 mM preincubated for 2 hrs by precipitation assay.
Assay [4] deals with T2, Ribonuclease pancreatic. The assay can be described thus: Inhibition of bovine pancreatic RNase A using 2',3'-cCMP as a substrate by Lineweaver-Burk analysis.
Assay [5] concerns the target T1, Ribonuclease pancreatic (Bos taurus). The assay can be described thus: Inhibition of bovine pancreatic RNase A-mediated degradation of yeast tRNA assessed as residual tRNA band at 0.09 mM preincubated for 3 hrs measured after 30 mins of addition of tRNA using ethidium bromide staining by agarose gel based assay.
Assay [6] shares this target. Description: Inhibition of bovine pancreatic RNase A-mediated degradation of yeast tRNA assessed as residual tRNA band at 0.27 mM preincubated for 3 hrs measured after 30 mins of addition of tRNA using ethidium bromide staining by agarose gel based assay.
The target of assay [7] is T2, Ribonuclease pancreatic. The assay can be described thus: Inhibition of bovine pancreatic RNase A at pH 5.9 by spectrophotometric method.

As usually defined, the Ki is the dissociation constant of the complex between target and ligand, obtained from inhibition or displacement. One may read the inhibition as the change of the read-out against control, counted positive when it falls. For the molecule `Cc1cn([C@H]2C[C@@H](O)[C@@H](CN3CCC(C(=O)O)CC3)O2)c(=O)[nH]c1=O`, the result in assay [1], in assay [5] and in assay [6] was Active. Further, the Ki at Ribonuclease pancreatic [2] turned out to be 183 µM; at Ribonuclease pancreatic [4] it was 229 µM. The inhibition in assay [3] worked out at 18%.
For the molecule `Cc1cn([C@H]2C[C@H](O)[C@@H](CN3CCC(C(=O)O)CC3)O2)c(=O)[nH]c1=O`, the result in assay [1], in assay [5] and in assay [6] was Active. Further, the inhibitory constant (Ki) on Ribonuclease pancreatic [2] is 121 µM; at Ribonuclease pancreatic [4], 162 µM. Moreover, in assay [3], the inhibition came to 23%.
Consider `Cc1cn([C@H]2C=C[C@@H](CN3CCC(C(=O)O)CC3)O2)c(=O)[nH]c1=O`, for which the outcome in assay [1], in assay [5] and in assay [6] was Active. Further, the inhibition in assay [3] worked out at 14%. The same molecule yielded a Ki at Ribonuclease pancreatic [4] of 250 µM.
As for `O=C(O)C1CCN(C[C@H]2O[C@@H](n3ccc(=O)[nH]c3=O)[C@H](O)[C@@H]2O)CC1`, the result in assay [1], in assay [5] and in assay [6] was Active. Further, the Ki on Ribonuclease pancreatic [2] came out at 61 µM; on Ribonuclease pancreatic [4] it was 75 µM. In assay [3], the inhibition came to 37%.
For `Nc1ncnc2c1ncn2[C@@H]1O[C@H](CO)[C@@H](OP(=O)(O)OC[C@H]2O[C@@H](n3ccc(=O)[nH]c3=O)C[C@@H]2OP(=O)(O)OP(=O)(O)O)[C@H]1O`, the affinity on Ribonuclease pancreatic [7], expressed as Ki, was 0.027 µM.
